# *1 amine or outer side, *2 acyl side, *3 side chain or, on linkers, in order; H or OH if unused. Where a SMILES comes first, the peptide text is derived from it. Bridges are numbered along the chain shown (N, C = ends). [ ]: non-standard residue; d: D form. The star is where a group is joined. ξ: configuration not given here. Phe(3-CF3) = N[C@@H](Cc1cccc(C(F)(F)F)c1)C(=O)O; Phe(4-COOH) = N[C@@H](Cc1ccc(C(=O)O)cc1)C(=O)O; Bip = N[C@@H](Cc1ccc(-c2ccccc2)cc1)C(=O)O; NH(CH2)14COOH = O=C(O)CCCCCCCCCCCCCCN*; Phe(3-Me) = Cc1cccc(C[C@H](N)C(=O)O)c1; βAsp = O=C(O)[C@H](CC(=O)[*:2])N[*:1]; NH(CH2)12COOH = O=C(O)CCCCCCCCCCCCN*; Val(3-OH) = CC(C)(O)[C@H](N)C(=O)O; 4Pal = N[C@@H](Cc1ccncc1)C(=O)O; Cha = N[C@@H](CC1CCCCC1)C(=O)O; Cit = NC(=O)NCCC[C@H](N)C(=O)O; Ile(3ξ) = CCC(C)[C@H](N)C(=O)O; Thr(3ξ) = CC(O)[C@H](N)C(=O)O; Chg = N[C@H](C(=O)O)C1CCCCC1; 12Ado = NCCCCCCCCCCCC(=O)O; dDab = NCC[C@@H](N)C(=O)O; Carboxymethyl = O=C(O)C*; NMeA = CN[C@@H](C)C(=O)O; Orn = NCCC[C@H](N)C(=O)O; Aun = NCCCCCCCCCCC(=O)O; Dab = NCC[C@H](N)C(=O)O; Dap = NC[C@H](N)C(=O)O; AEEA = NCCOCCOCC(=O)O
# Target: T1, PD-1/PD-L1 interaction (PE-labeled human PD-L1-Ig binding to Jurkat cell line over-expressing human PD-1) (Homo sapiens, UniProt Q15116)
# T1 construct: expressed in transfected cells; host or cells: Jurkat
# T1 sequence (Q15116 25-288): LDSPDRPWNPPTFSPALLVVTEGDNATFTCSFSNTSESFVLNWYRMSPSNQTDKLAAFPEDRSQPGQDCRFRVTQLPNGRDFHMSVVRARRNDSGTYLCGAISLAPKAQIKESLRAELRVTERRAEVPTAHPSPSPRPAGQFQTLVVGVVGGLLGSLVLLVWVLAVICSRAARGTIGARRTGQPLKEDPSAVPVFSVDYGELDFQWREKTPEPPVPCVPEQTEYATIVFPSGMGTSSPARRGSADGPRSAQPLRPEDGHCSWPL
# Test: Jurkat-PD-1 Cell Binding High-Content Screening Assay (CBA)
# Settings: Jurkat-hPD-1 cells, PE-labeled PD-L1-Ig 20 nM final; read-out: Jurkat HPD1 PDL1 IC50
# Method in brief: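 Binding of 20 nM (final) PE-tagged PD-L1-Ig to compound-pretreated Jurkat-hPD-1 cells was measured by high-content imaging after 1 h. Pretreatment ran 2 h at 37 °C in DMEM with 10% fetal calf serum.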
row,Structure (SMILES),IC50 [µM]
1,Cc1cccc(C[C@@H]2NC(=O)[C@H](CC(=O)O)NC(=O)[C@H](Cc3ccncc3)NC(=O)[C@H](Cc3ccc(OCC(=O)O)cc3)NC(=O)CSC[C@@H](C(=O)N[C@@H](CCCN)C(=O)NCCOCCOCC(=O)NCCCCCCCCCCC(=O)O)NC(=O)[C@H]([C@@H](C)O)NC(=O)[C@H](C(C)C)NC(=O)[C@H](CC3CCCCC3)NC(=O)[C@H](CCN)NC(=O)[C@@H](CC(C)C)NC(=O)[C@H](C)N(C)C(=O)[C@H](Cc3ccc(OCC(=O)O)cc3)NC(=O)[C@H](Cc3ccc(-c4ccccc4)cc3)NC(=O)[C@H](Cc3ccc(OCC(=O)O)cc3)NC2=O)c1 [Example 1361] ({CH2CO}-Y(Carboxymethyl)[4Pal]D[Phe(3-Me)]Y(Carboxymethyl)[Bip]Y(Carboxymethyl)[NMeA][dL][Dab][Cha]VTC[Orn][AEEA][Aun]-OH; thioether N-14),0.0161
2,CC(C)C[C@@H]1NC(=O)[C@H](Cc2c[nH]c3ccccc23)NC(=O)[C@H](CC(=O)O)NC(=O)[C@H](Cc2ccncc2)NC(=O)[C@H](Cc2ccc(OCC(=O)O)cc2)NC(=O)CSC[C@@H](C(=O)N[C@@H](CCCN)C(=O)NCCCCCCCCCCC(=O)O)NC(=O)[C@H](CO)NC(=O)[C@H](C(C)C)NC(=O)[C@H](CC2CCCCC2)NC(=O)[C@H](CCN)NC(=O)[C@@H](CC(C)C)NC(=O)[C@H](C)N(C)C(=O)[C@H](C(C)C)NC(=O)[C@H](Cc2ccc(-c3ccccc3)cc2)NC1=O [Example 1084] ({CH2CO}-Y(Carboxymethyl)[4Pal]DWL[Bip]V[NMeA][dL][Dab][Cha]VSC[Orn][Aun]-OH; thioether N-14),0.0209
3,Cc1cccc(C[C@@H]2NC(=O)[C@H](CC(=O)O)NC(=O)[C@H](Cc3ccc(C(=O)O)cc3)NC(=O)[C@H](Cc3ccc(OCC(=O)O)cc3)NC(=O)CSC[C@@H](C(=O)NCC(=O)N[C@@H](CC(=O)NCCOCCOCC(=O)N[C@@H](CC(=O)O)C(=O)NCCOCCOCC(=O)NCCCCCCCCCCC(=O)O)C(=O)O)NC(=O)[C@H](CO)NC(=O)[C@H](C(C)C)NC(=O)[C@H](CC(C)C)NC(=O)[C@H](CC(N)=O)NC(=O)[C@@H](CC(C)C)NC(=O)[C@H](C)N(C)C(=O)[C@H](C(C)C)NC(=O)[C@H](Cc3ccc(-c4ccccc4)cc3)NC(=O)[C@H](CC(C)C)NC2=O)c1 [Example 1024] ({CH2CO}-Y(Carboxymethyl)[Phe(4-COOH)]D[Phe(3-Me)]L[Bip]V[NMeA][dL]NLVSCG[βAsp][AEEA]D[AEEA][Aun]-OH; thioether N-14),0.0875
4,CC(C)C[C@@H]1NC(=O)[C@H](Cc2c[nH]c3ccccc23)NC(=O)[C@H](CC(=O)O)NC(=O)[C@H](Cc2ccc(C(=O)O)cc2)NC(=O)[C@H](C(C)O)NC(=O)CSC[C@@H](C(=O)N[C@@H](C)C(=O)N[C@@H](CCN)C(=O)NCCCCCCCCCCCCCCC(=O)O)NC(=O)[C@H](CO)NC(=O)[C@H](C(C)C)NC(=O)[C@H](CC2CCCCC2)NC(=O)[C@H](CCN)NC(=O)[C@@H](CC(C)C)NC(=O)[C@H](C)N(C)C(=O)[C@H](C(C)C)NC(=O)[C@H](Cc2ccc(-c3ccccc3)cc2)NC1=O (stereo partly drawn) [Example 2005] ({CH2CO}-[Thr(3ξ)][Phe(4-COOH)]DWL[Bip]V[NMeA][dL][Dab][Cha]VSCA[Dab]-{NH(CH2)14COOH}; thioether N-14),0.223
5,CC(C)C[C@@H]1NC(=O)[C@H](Cc2c[nH]c3ccccc23)NC(=O)[C@H](CC(=O)O)NC(=O)[C@H](Cc2ccc(OCC(=O)O)cc2)NC(=O)[C@H](Cc2ccccc2)NC(=O)CSC[C@@H](C(=O)N[C@@H](CCN)C(=O)NCCCCCCCCCCC(=O)O)NC(=O)[C@H](CCC(=O)O)NC(=O)[C@H](C(C)C)NC(=O)[C@H](CC(C)C)NC(=O)[C@H](CC(N)=O)NC(=O)[C@@H](CC(C)C)NC(=O)[C@H](C)N(C)C(=O)[C@H](C(C)C)NC(=O)[C@H](Cc2ccc(-c3ccccc3)cc2)NC1=O [Example 1334] ({CH2CO}-FY(Carboxymethyl)DWL[Bip]V[NMeA][dL]NLVEC[Dab][Aun]-OH; thioether N-14),0.117
6,CC(C)C[C@H]1NC(=O)[C@H](C)N(C)C(=O)[C@H](C(C)C)NC(=O)[C@H](Cc2ccc(-c3ccccc3)cc2)NC(=O)[C@H](C2CCCCC2)NC(=O)[C@H](Cc2c[nH]c3ccccc23)NC(=O)[C@H](CC(=O)O)NC(=O)[C@H](Cc2ccncc2)NC(=O)[C@H](Cc2ccc(OCC(=O)O)cc2)NC(=O)CSC[C@@H](C(=O)N[C@@H](CCCCN)C(=O)NCCOCCOCC(=O)NCCCCCCCCCCC(=O)O)NC(=O)[C@H](CO)NC(=O)[C@H](C(C)C)NC(=O)[C@H](CC2CCCCC2)NC(=O)[C@H](CC(=O)O)NC1=O [Example 2092] ({CH2CO}-Y(Carboxymethyl)[4Pal]DW[Chg][Bip]V[NMeA][dL]D[Cha]VSCK[AEEA][Aun]-OH; thioether N-14),0.0728
7,CC(C)C[C@@H]1NC(=O)[C@H](Cc2c[nH]c3ccccc23)NC(=O)[C@H](CC(=O)O)NC(=O)[C@H](Cc2ccc(C(=O)O)cc2)NC(=O)[C@H](Cc2ccc(OCC(=O)O)cc2)NC(=O)CSC[C@@H](C(=O)N[C@@H](CN)C(=O)NCCOCCOCC(=O)NCCCCCCCCCCC(=O)O)NC(=O)[C@H](CCCNC(N)=O)NC(=O)[C@H](C(C)C)NC(=O)[C@H](CC2CCCCC2)NC(=O)[C@H](CCN)NC(=O)[C@@H](CC(C)C)NC(=O)[C@H](C)N(C)C(=O)[C@H](C(C)C)NC(=O)[C@H](Cc2ccc(-c3ccccc3)cc2)NC1=O [Example 2132] ({CH2CO}-Y(Carboxymethyl)[Phe(4-COOH)]DWL[Bip]V[NMeA][dL][Dab][Cha]V[Cit]C[Dap][AEEA][Aun]-OH; thioether N-14),0.0082

# Further lines, results first:
row,IC50 [µM],Structure (SMILES)
1,0.306,CC(C)C[C@H]1NC(=O)[C@H](C)N(C)C(=O)[C@H](Cc2ccc(OCC(=O)O)cc2)NC(=O)[C@H](Cc2ccc(-c3ccccc3)cc2)NC(=O)[C@H](Cc2ccc(OCC(=O)O)cc2)NC(=O)[C@H](Cc2c[nH]c3ccccc23)NC(=O)[C@H](CC(=O)O)NC(=O)[C@H](Cc2ccc(OCC(=O)O)cc2)NC(=O)[C@H]([C@@H](C)O)NC(=O)CSC[C@@H](C(=O)N[C@@H](CCN)C(=O)NCCOCCOCC(=O)NCCCCCCCCCCC(=O)O)NC(=O)[C@H](CCCN)NC(=O)[C@H](C(C)C)NC(=O)[C@H](CC2CCCCC2)NC(=O)[C@H](CCC(=O)O)NC1=O [Example 1400] ({CH2CO}-TY(Carboxymethyl)DWY(Carboxymethyl)[Bip]Y(Carboxymethyl)[NMeA][dL]E[Cha]V[Orn]C[Dab][AEEA][Aun]-OH; thioether N-14)
2,0.0049,CC(=O)NCCCC[C@@H]1NC(=O)[C@H](Cc2ccc(-c3ccccc3)cc2)NC(=O)[C@H](CC(C)C)NC(=O)[C@H](Cc2cccc(C)c2)NC(=O)[C@H](CC(=O)O)NC(=O)[C@H](Cc2ccc(C(=O)O)cc2)NC(=O)[C@H](Cc2ccc(OCC(=O)O)cc2)NC(=O)CSC[C@@H](C(=O)NCCCCCCCCCCC(=O)O)NC(=O)[C@H](CCCNC(N)=O)NC(=O)[C@H](C(C)C)NC(=O)[C@H](CC2CCCCC2)NC(=O)[C@H](CCN)NC(=O)[C@@H](CC(C)C)NC(=O)[C@H](C)N(C)C1=O [Example 2247] ({CH2CO}-Y(Carboxymethyl)[Phe(4-COOH)]D[Phe(3-Me)]L[Bip]K(Ac)[NMeA][dL][Dab][Cha]V[Cit]C[Aun]-OH; thioether N-14)

# Same assay, conditions: PE-labeled PD-L1-Ig 20 nM final, Jurkat-hPD-1 cells; read-out: Jurkat HPD1 PDL1 IC50
row,IC50 [µM],Structure (SMILES)
1,0.0282,CC(=O)NCCCC[C@@H]1NC(=O)[C@H](C(C)(C)O)NC(=O)[C@H](CC2CCCCC2)NC(=O)[C@H](CCN)NC(=O)[C@@H](CC(C)C)NC(=O)[C@H](C)N(C)C(=O)[C@H](CCC(N)=O)NC(=O)[C@H](Cc2ccc(-c3ccccc3)cc2)NC(=O)[C@H](Cc2ccc(C(=O)O)cc2)NC(=O)[C@H](Cc2cccc(C(F)(F)F)c2)NC(=O)[C@H](CC(=O)O)NC(=O)[C@H](Cc2ccc(OCC(=O)O)cc2)NC(=O)[C@H](Cc2ccc(OCC(=O)O)cc2)NC(=O)CSC[C@@H](C(=O)N[C@H](CCN)C(=O)NCCCCCCCCCCCCC(=O)O)NC1=O [Example 2599] ({CH2CO}-Y(Carboxymethyl)Y(Carboxymethyl)D[Phe(3-CF3)][Phe(4-COOH)][Bip]Q[NMeA][dL][Dab][Cha][Val(3-OH)]K(Ac)C[dDab]-{NH(CH2)12COOH}; thioether N-14)
2,0.0042,CCC(C)[C@@H]1NC(=O)[C@H](Cc2ccc(-c3ccccc3)cc2)NC(=O)[C@H](C(C)C)NC(=O)[C@H](Cc2c[nH]c3ccccc23)NC(=O)[C@H](CC(=O)O)NC(=O)[C@H](Cc2ccc(OCC(=O)O)cc2)NC(=O)[C@H](Cc2ccc(OCC(=O)O)cc2)NC(=O)CSC[C@@H](C(=O)N[C@@H](CCN)C(=O)NCCOCCOCC(=O)NCCCCCCCCCCC(=O)O)NC(=O)[C@H](CCCCNC(C)=O)NC(=O)[C@H](C(C)(C)O)NC(=O)[C@H](CC2CCCCC2)NC(=O)[C@H](Cc2cnc[nH]2)NC(=O)[C@@H](CC(C)C)NC(=O)[C@H](C)N(C)C1=O (stereo partly drawn) [Example 2588] ({CH2CO}-Y(Carboxymethyl)Y(Carboxymethyl)DWV[Bip][Ile(3ξ)][NMeA][dL]H[Cha][Val(3-OH)]K(Ac)C[Dab][AEEA][Aun]-OH; thioether N-14)
3,0.0026,Cc1cccc(C[C@@H]2NC(=O)[C@H](CC(=O)O)NC(=O)[C@H](Cc3ccc(OCC(=O)O)cc3)NC(=O)[C@H]([C@@H](C)O)NC(=O)CSC[C@@H](C(=O)N[C@@H](CCN)C(=O)NCCOCCOCC(=O)NCCCCCCCCCCCC(=O)O)NC(=O)[C@@H](CCC(=O)O)NC(=O)[C@H](C(C)C)NC(=O)[C@H](CC3CCCCC3)NC(=O)[C@H](CCN)NC(=O)[C@@H](CC(C)C)NC(=O)[C@H](C)N(C)C(=O)[C@H](Cc3ccc(OCC(=O)O)cc3)NC(=O)[C@H](Cc3ccc(-c4ccccc4)cc3)NC(=O)[C@H](Cc3ccc(OCC(=O)O)cc3)NC2=O)c1 [Example 2668] ({CH2CO}-TY(Carboxymethyl)D[Phe(3-Me)]Y(Carboxymethyl)[Bip]Y(Carboxymethyl)[NMeA][dL][Dab][Cha]V[dE]C[Dab][AEEA][12Ado]-OH; thioether N-14)

# From patent US20260070945A1, “MACROCYCLIC IMMUNOMODULATORS” (Bristol-Myers Squibb Company, priority 2022, published 2026)
